# Where “and” joins values, the source holds several entries; their conditions need not be identical. Equal values may be shown once.
# Experiment: Metabolic chamber assay
# Assay type: in vivo, mouse
# Set-up: AUC of RER / AUC of RER, group mean: unit not given beside the values
# Settings: for RER of DIO: DIO ip APC, single animals
# Description: Metabolic parameters of mice were determined using Columbus Instruments Comprehensive Lab Animal Monitoring System (CLAMS). The area unit under the curve (AUC) of respiratory exchange ratio (RER) and ambulatory activity (X-TOT) were calculated using Graphpad prism 8.0.
structure (smiles),measurement,setting,value
"CC(C)=CCc1cc(C=CC(=O)O)cc(CC=C(C)C)c1O [APC, 3,5-diprenyl-4-hydroxycinnamic acid]",RER of DIO,"interval 37, hour 13.6",0.88 and 0.869 and 0.798 and 0.846
same,RER of DIO,"interval 38, hour 13.9",0.846 and 0.848 and 0.837 and 0.814
same,RER of DIO,"interval 39, hour 14.3",0.854 and 0.82 and 0.839 and 0.825
same,RER of DIO,"interval 40, hour 14.7",0.86 and 0.846 and 0.828 and 0.83
same,RER of DIO,"interval 41, hour 15.0",0.866 and 0.871 and 0.84 and 0.828
same,RER of DIO,"interval 42, hour 15.4",0.814 and 0.86 and 0.83 and 0.806
same,RER of DIO,"interval 43, hour 15.8",0.858 and 0.883 and 0.843 and 0.83
same,RER of DIO,"interval 44, hour 16.1",0.887 and 0.859 and 0.818 and 0.83
same,RER of DIO,"interval 45, hour 16.5",0.883 and 0.858 and 0.81 and 0.824
same,RER of DIO,"interval 46, hour 16.9",0.827 and 0.816 and 0.835 and 0.797
same,RER of DIO,"interval 47, hour 17.2",0.845 and 0.787 and 0.84 and 0.811
same,RER of DIO,"interval 48, hour 17.6",0.803 and 0.8 and 0.812 and 0.779
same,RER of DIO,"interval 49, hour 18.0",0.826 and 0.77 and 0.786 and 0.808
same,RER of DIO,"interval 50, hour 18.3",0.8 and 0.765 and 0.776 and 0.827
same,RER of DIO,"interval 51, hour 18.7",0.816 and 0.804 and 0.782 and 0.849
same,RER of DIO,"interval 52, hour 19.1",0.748 and 0.846 and 0.834 and 0.782
same,RER of DIO,"interval 53, hour 19.4",0.829 and 0.795 and 0.809 and 0.784
same,RER of DIO,"interval 54, hour 19.8",0.795 and 0.796 and 0.8 and 0.821
same,RER of DIO,"interval 55, hour 20.2",0.793 and 0.823 and 0.818 and 0.827
same,RER of DIO,"interval 56, hour 20.5",0.819 and 0.827 and 0.837 and 0.791
same,RER of DIO,"interval 57, hour 20.9",0.849 and 0.806 and 0.795 and 0.788
same,RER of DIO,"interval 58, hour 21.3",0.795 and 0.771 and 0.783 and 0.79
same,RER of DIO,"interval 59, hour 21.6",0.833 and 0.785 and 0.748 and 0.783
same,RER of DIO,"interval 60, hour 22.0",0.787 and 0.839 and 0.786 and 0.789
same,RER of DIO,"interval 61, hour 22.4",0.78 and 0.845 and 0.792 and 0.77
same,RER of DIO,"interval 62, hour 22.7",0.799 and 0.852 and 0.77 and 0.81
same,RER of DIO,"interval 63, hour 23.1",0.815 and 0.784 and 0.793 and 0.796
same,RER of DIO,"interval 64, hour 23.5",0.868 and 0.804 and 0.79 and 0.793
same,RER of DIO,"interval 65, hour 23.8",0.88 and 0.841 and 0.837 and 0.825
same,RER of DIO,"interval 66, hour 24.2",0.846 and 0.879 and 0.838 and 0.813
same,RER of DIO,"interval 67, hour 24.6",0.838 and 0.875 and 0.807 and 0.8
same,RER of DIO,"interval 68, hour 24.9",0.86 and 0.913 and 0.847 and 0.857
same,RER of DIO,"interval 69, hour 25.3",0.873 and 0.865 and 0.838 and 0.896
same,RER of DIO,"interval 70, hour 25.7",0.843 and 0.89 and 0.8 and 0.847
same,AUC of RER,"WT mice, individual mice",64.64 and 64.37 and 63.27 and 66.85
same,Twenty-four hours respiratory exchange ratio (RER),"WT mice, individual mice, reading 6",0.933 and 0.928 and 0.895 and 0.97
same,Twenty-four hours respiratory exchange ratio (RER),"WT mice, individual mice, reading 7",0.939 and 0.96 and 0.973 and 0.974
same,Twenty-four hours respiratory exchange ratio (RER),"WT mice, individual mice, reading 8",0.918 and 0.961 and 0.922 and 0.982
same,Twenty-four hours respiratory exchange ratio (RER),"WT mice, individual mice, reading 9",0.913 and 0.964 and 0.926 and 0.986
same,Twenty-four hours respiratory exchange ratio (RER),"WT mice, individual mice, reading 10",0.969 and 0.971 and 0.952 and 0.978
same,Twenty-four hours respiratory exchange ratio (RER),"WT mice, individual mice, reading 11",0.955 and 0.975 (2×) and 0.936
same,Twenty-four hours respiratory exchange ratio (RER),"WT mice, individual mice, reading 12",0.989 and 0.966 and 0.963 and 1.016
same,Twenty-four hours respiratory exchange ratio (RER),"WT mice, individual mice, reading 13",0.967 and 0.988 and 0.98 and 0.99
same,Twenty-four hours respiratory exchange ratio (RER),"WT mice, individual mice, reading 14",0.975 and 0.999 and 0.954 and 1.005
same,Twenty-four hours respiratory exchange ratio (RER),"WT mice, individual mice, reading 15",0.988 and 0.994 and 0.959 and 0.969
same,Twenty-four hours respiratory exchange ratio (RER),"WT mice, individual mice, reading 16",1.003 and 0.991 and 0.965 and 0.97
same,Twenty-four hours respiratory exchange ratio (RER),"WT mice, individual mice, reading 17",1.006 and 0.99 and 0.951 and 0.989
same,Twenty-four hours respiratory exchange ratio (RER),"WT mice, individual mice, reading 18",0.963 and 0.961 and 0.974 and 1.025
same,Twenty-four hours respiratory exchange ratio (RER),"WT mice, individual mice, reading 19",0.958 and 0.976 and 0.946 and 1.032
same,Twenty-four hours respiratory exchange ratio (RER),"WT mice, individual mice, reading 20",0.939 and 0.961 and 1.004 and 1.024
same,Twenty-four hours respiratory exchange ratio (RER),"WT mice, individual mice, reading 21",0.991 and 1.018 and 0.961 and 0.993
same,Twenty-four hours respiratory exchange ratio (RER),"WT mice, individual mice, reading 22",0.946 and 0.962 and 0.958 and 0.989
same,Twenty-four hours respiratory exchange ratio (RER),"WT mice, individual mice, reading 23",0.971 and 1.012 and 0.999 and 0.985
same,Twenty-four hours respiratory exchange ratio (RER),"WT mice, individual mice, reading 24",1.006 and 0.997 and 0.993 and 1.002
same,Twenty-four hours respiratory exchange ratio (RER),"WT mice, individual mice, reading 25",0.971 and 0.965 and 0.961 and 0.984
same,Twenty-four hours respiratory exchange ratio (RER),"WT mice, individual mice, reading 26",0.941 and 0.984 and 1.005 and 0.996
same,Twenty-four hours respiratory exchange ratio (RER),"WT mice, individual mice, reading 27",0.981 and 0.968 and 0.989 and 0.998
same,Twenty-four hours respiratory exchange ratio (RER),"WT mice, individual mice, reading 28",0.956 and 0.954 and 0.968 and 0.984
same,Twenty-four hours respiratory exchange ratio (RER),"WT mice, individual mice, reading 29",0.975 and 0.977 and 0.994 and 1.026
same,Twenty-four hours respiratory exchange ratio (RER),"WT mice, individual mice, reading 30",0.994 and 0.963 and 1.014 and 1.033
same,"AUC of RER, group mean","WT mice, n=4",64.78
same,respiratory exchange ratio (RER) and energy expenditure,db/db mice,significantly elevated

# Reference: article PMC8752738, “A propolis-derived small molecule ameliorates metabolic syndrome in obese mice by targeting the CREB/CRTC2 transcriptional complex” (Nature Communications, 2022)
